Results on one compound are retold here after US7776558B2, “Human G protein-coupled receptor and modulators thereof for the treatment of cell death-related disorders” (Arena Pharmaceuticals, Inc., priority 2003, dated 2010).

For one experiment, the target named is T1, human FPRL2 (Homo sapiens, UniProt P25089).
T1 sequence (P25089 with tags, fused parts or gaps): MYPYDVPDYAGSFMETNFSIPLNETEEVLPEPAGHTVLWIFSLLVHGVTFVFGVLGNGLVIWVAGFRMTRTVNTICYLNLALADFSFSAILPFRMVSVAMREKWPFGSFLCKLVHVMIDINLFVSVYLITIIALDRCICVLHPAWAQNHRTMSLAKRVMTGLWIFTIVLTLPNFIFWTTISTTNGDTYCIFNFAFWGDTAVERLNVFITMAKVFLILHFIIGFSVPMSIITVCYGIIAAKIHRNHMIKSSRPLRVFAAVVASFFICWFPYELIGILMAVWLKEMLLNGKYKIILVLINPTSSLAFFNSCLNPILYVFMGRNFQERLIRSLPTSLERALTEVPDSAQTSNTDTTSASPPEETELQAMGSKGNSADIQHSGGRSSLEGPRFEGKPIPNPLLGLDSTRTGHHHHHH
The experiment is described as follows: Melanophore assay (pigment aggregation, Gi coupling). Type of experiment: cell-based. Details: expressed in transfected cells. The note with it: FPRL2 double tagged (HA/V5), transient; FIG. 4; read-out: EC50 of promoted pigment aggregation in melanophore (Gi coupling). An excerpt: Melanophores are skin cells found in lower vertebrates. They contain pigmented organelles termed melanosomes. Melanophores are able to redistribute these melanosomes along a microtubule network upon G-protein coupled receptor (GPCR) activation. The result of this pigment movement is an apparent lightening or darkening of the cells. In melanophores, the decreased levels of intracellular cAMP that result from activation of a Gi-coupled receptor cause melanosomes to migrate to the center of the cell, resulting in a dramatic lightening in color. If cAMP levels are then raised, following activation of a Gs-coupled receptor, the melanosomes are re-dispersed and the cells appear dark again. The increased levels of diacylglycerol that result from activation of Gq-coupled receptors can also induce this re-dispersion. In addition, the technology is also suited to the study of certain receptor tyrosine kinases. […] The response can be easily detected using a conventional absorbance microplate reader or a modest video imaging system. […]
Melanophores can be utilized to identify compounds, including natural ligands, against GPCRs. […] The test cells are then contacted with chemical compounds, and it is determined whether the pigment disposition in the cells changed from the initial state of pigment disposition. […]

The target of the next experiment is T2, FPRL1 (Homo sapiens, UniProt P25090).
T2 sequence (P25090 1-351): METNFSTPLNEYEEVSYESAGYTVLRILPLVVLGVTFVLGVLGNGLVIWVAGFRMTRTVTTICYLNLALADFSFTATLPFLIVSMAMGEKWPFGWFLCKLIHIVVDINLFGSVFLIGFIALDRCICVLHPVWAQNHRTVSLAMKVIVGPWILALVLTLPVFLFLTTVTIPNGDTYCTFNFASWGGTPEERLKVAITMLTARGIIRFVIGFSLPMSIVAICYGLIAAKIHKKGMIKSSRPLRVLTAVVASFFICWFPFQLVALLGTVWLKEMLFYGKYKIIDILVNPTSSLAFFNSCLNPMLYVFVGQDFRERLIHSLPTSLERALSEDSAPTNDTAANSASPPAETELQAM
The settings on record: Ying et al. 2002; cited from earlier work.

Take `CC[C@H](C)[C@H](NC(=O)[C@H](CCC(=O)O)NC(=O)[C@H](CO)NC(=O)[C@@H](NC(=O)[C@H](CC(C)C)NC(=O)[C@H](CC(C)C)NC(=O)[C@H](CC(C)C)NC(=O)[C@H](CC(C)C)NC(=O)[C@H](CS)NC(=O)[C@H](CO)NC(=O)[C@H](Cc1ccccc1)NC(=O)CNC(=O)[C@H](CCCNC(=N)N)NC(=O)[C@@H]1CCCN1C(=O)[C@H](C)NC(=O)[C@@H](N)CCSC)[C@@H](C)O)C(=O)N[C@@H](CC(=O)O)C(=O)N[C@@H](CC(C)C)C(=O)N1CCC[C@H]1C(=O)N[C@H](C(=O)N[C@@H](CCCCN)C(=O)N[C@@H](CCCNC(=N)N)C(=O)N[C@@H](CCCNC(=N)N)C(=O)N[C@@H](C)C(=O)O)C(C)C` [Humanin]: the 50% effective concentration (EC50) (as a rule, the concentration needed to bring the measured effect to its halfway point) on human FPRL2 is about 239 nM. Further, on FPRL1, the “Use of FPRL1 as receptor” value was “uses FPRL1 as a functional receptor”.
